This note sets out measurements from patent publication US8946142B2, “Beta-arrestin effectors and compositions and methods of use thereof” (Trevena, Inc., priority 2012, dated 2015).

Where a SMILES comes first, the peptide text is derived from it. [ ]: non-standard residue; d: D form. The star is where a group is joined. Ac6c = NC1(C(=O)O)CCCCC1; NHiPr = CC(C)N*; Sar = CNCC(=O)O A value given as a limit tells only on which side of the number the result lay.

Holding throughout (format): cell-based
Test [1] concerns the target T1, human AT1R (Homo sapiens, UniProt P30556).
T1 sequence (P30556 1-359): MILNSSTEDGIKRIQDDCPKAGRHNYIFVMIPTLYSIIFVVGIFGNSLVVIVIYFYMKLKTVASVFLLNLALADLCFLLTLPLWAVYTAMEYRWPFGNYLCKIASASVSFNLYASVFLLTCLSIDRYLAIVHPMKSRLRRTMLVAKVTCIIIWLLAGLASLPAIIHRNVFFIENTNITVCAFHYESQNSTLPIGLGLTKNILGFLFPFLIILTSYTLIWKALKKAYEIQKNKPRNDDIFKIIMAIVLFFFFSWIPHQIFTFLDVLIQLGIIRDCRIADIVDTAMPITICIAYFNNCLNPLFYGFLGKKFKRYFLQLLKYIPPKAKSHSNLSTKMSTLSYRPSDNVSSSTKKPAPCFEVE
The experiment in a line: beta-arrestin2 recruitment assay (PathHunter), human AT1R. As to conditions: for Emax: 1 h, read-out: Span (relative to hAngII). Here is the method: (§1) The proximal event in β-arrestin function mediated by GPCRs is recruitment to receptors following ligand binding and receptor phosphorylation by GRK's. Thus, the measure of β-arrestin recruitment was used to determine ligand efficacy for β-arrestin function.
(§2) B-arrestin-2 recruitment to the human and rat angiotensin 2 type 1 receptor (human AT1R and rat AT1aR, respectively) was measured with the PathHunter™ μl-arrestin assay (DiscoveRx Corporation, Fremont Calif.). Cells, plasmid(s), and detection reagent(s) were purchased from DiscoveRx, and assays were performed per manufacturer's instructions. Human AT1R and rat AT1aR were cloned into the pCMV-ProLink vector, verified by sequencing, and transfected into PathHunter β-arrestin HEK293 cells. Stably transfected clonal cell lines were selected with Hygromycin and G418. These clonal cell lines were used for all experiments.
(§3) For assays, 4,000-8,000 cells were seeded per well in 384-well microplates “HiBase” small-volume plate in volumes of 20 uL and grown overnight in the incubator (37° C., 5% CO2, saturated humidity). Peptides were dissolved in DMSO to a concentration of 10 mM. Peptides were then further diluted in assay buffer (Hank's balanced salt solution with 20 mM HEPES) to add peptide to the cells to reach final concentrations ranging from 100 μM to 1 pM. Cells were then incubated for 60 minutes at 37° C. in 5% CO2, followed by addition of 2 μL of PathHunter Detection Reagent to each well. The microplates were then incubated at room temperature for 60 minutes, and then luminescence was measured using a PHERAstar Plus microplate reader from BMG Labtech. B-arrestin-2 recruitment to receptors was measured as relative luminescence intensity expressed in arbitrary units.

The target of test [2] is T2, rat AT1aR (Rattus norvegicus, UniProt P25095).
T2 sequence (P25095 1-359): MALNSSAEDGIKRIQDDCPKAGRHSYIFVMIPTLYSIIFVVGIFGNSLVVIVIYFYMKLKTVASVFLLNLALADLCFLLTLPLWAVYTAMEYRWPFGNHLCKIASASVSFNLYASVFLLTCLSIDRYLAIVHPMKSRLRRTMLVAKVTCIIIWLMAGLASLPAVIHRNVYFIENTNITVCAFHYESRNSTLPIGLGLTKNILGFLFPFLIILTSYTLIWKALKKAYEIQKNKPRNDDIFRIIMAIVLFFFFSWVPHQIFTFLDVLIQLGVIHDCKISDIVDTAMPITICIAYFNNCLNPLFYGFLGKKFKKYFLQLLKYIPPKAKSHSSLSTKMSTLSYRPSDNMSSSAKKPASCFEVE
The experiment in a line: beta-arrestin2 recruitment assay (PathHunter), rat AT1aR. Conditions: for Emax: 1 h, read-out: Span (relative to hAngII). Here is the method:
as §1, §2, §3
(Recruitment of arrestin is a read-out of receptor activation apart from second messengers.)

For test [3], the target named is T2, rat AT1aR. The experiment in a line: IP1 accumulation assay (IP1 G-protein assay), rat AT1aR. As to conditions: for Emax: read-out: Span (relative to hAngII). On the procedure: (§4) A secondary measure of G protein coupling efficacy was also performed. IP3 is generated by activation of phospholipase C by Gα-q. IP3 is degraded to IP1, which can be forced to accumulate in cells by blocking degradation with lithium chloride. Thus we measured accumulation of IP1 to determine ligand efficacy for G protein activation.
(§5) IP1 accumulation generated by human and rat angiotensin 2 type 1 receptor (human AT1R and rat AT1aR, respectively) was measured with IP-One Tb kits purchased from Cisbio and used per the manufacturer's instructions. Clonal stably transfected cell lines expressing human AT1TR or rat AT1aR were used for all experiments.
(§6) For assays, 4,000-8,000 cells were seeded per well in 384-well small-volume microplates “HiBase” small-volume plate in volumes of 20 uL and allowed to grow overnight at 37° C. in 5% CO2. Cell growth media was then replaced with stimulation buffer supplied by Cisbio containing 50 mM lithium chloride. […] For agonist detection, peptides were then further diluted in stimulation buffer to add peptide to the cells to reach final concentrations ranging from 100 uM to 1 pM. Following addition of peptides, cells were incubated at 37° C. in 5% CO2 for 30 minutes and then lysed with 4 uL of pre-mixed HTRF IP-One reagents diluted per manufacturer's instructions (Cisbio). Microplates were incubated for 60-90 minutes at room temperature and then time-resolved fluorescence intensities were measured using a PHERAstar Plus microplate reader from BMG Labtech. IP1 accumulation was measured as change in ratio of time-resolved fluorescent intensities measured at 665 nm and 620 nm.

Test [4] concerns the target T1, human AT1R. The experiment in a line: IP1 accumulation assay (IP1 G-protein assay), human AT1R. Conditions: for Emax: read-out: Span (relative to hAngII). Here is the method:
as §4, §5, §6

As to `CNCC(=O)N[C@@H](CCCNC(=N)N)C(=O)N[C@H](C(=O)N[C@@H](Cc1ccc(O)cc1)C(=O)NC1(C(=O)N[C@@H](Cc2c[nH]cn2)C(=O)N2CCC[C@H]2C(=O)N[C@@H](Cc2c[nH]cn2)C(=O)O)CCCCC1)C(C)C` [SEQ ID NO: 37, Sar-Arg-Val-Tyr-cyHex-His-Pro-His] (H-[Sar]RVY[Ac6c]HPH-OH), the Emax on human AT1R [1] is below 101%; on rat AT1aR [2], below 105%; on rat AT1aR [3], below 104%. Besides, the EC50 on human AT1R [1] (read-out: EC50) was above 3.2 nM; at human AT1R [1] (read-out: pEC50 (converted)), above 3.16 nM; at rat AT1aR [2] (read-out: EC50) it was above 3.2 nM; at rat AT1aR [2] (read-out: pEC50 (converted)), above 3.16 nM; at rat AT1aR [3] (read-out: EC50), above 0.6 nM; at rat AT1aR [3] (read-out: pEC50 (converted)), above 0.631 nM.
On to `CNCC(=O)N[C@@H](CCCNC(=N)N)C(=O)N[C@H](C(=O)N[C@@H](Cc1ccc(O)cc1)C(=O)N1CCC[C@H]1C(=O)N[C@@H](Cc1c[nH]cn1)C(=O)N1CCC[C@H]1C(=O)N[C@@H](CO)C(=O)O)C(C)C` [SEQ ID NO: 8, Sar-Arg-Val-Tyr-Pro-His-Pro-Ser] (H-[Sar]RVYPHPS-OH; N-terminus and C-terminus assumed), for which the Emax at human AT1R [1] was below 101%; at human AT1R [4], below 103%; on rat AT1aR [2], below 105%.
For the compound `CCCCc1nc(Cl)c(CO)n1Cc1ccc(-c2ccccc2-c2nn[nH]n2)cc1` [losartan, reference compound], on rat AT1aR [2], the “EC50 (nM)” value is recorded as “Inactive” and the pEC50 result is recorded as “Inactive”. Further, the Emax at rat AT1aR [3] is below 104%.
On to `CNCC(=O)N[C@@H](CCCCN)C(=O)N[C@H](C(=O)N[C@@H](Cc1ccc(O)cc1)C(=O)NC1(C(=O)N[C@@H](Cc2c[nH]cn2)C(=O)N2CCC[C@H]2C(=O)N[C@@H](C)C(=O)O)CCCCC1)C(C)C` [SEQ ID NO: 51, Sar-Lys-Val-Tyr-cyHex-His-Pro-Ala] (H-[Sar]KVY[Ac6c]HPA-OH), for which the Emax at human AT1R [1] was below 101%; on human AT1R [4] it was below 103%; at rat AT1aR [2] it was below 105%. The EC50 is above 3.2 nM at human AT1R [1] (read-out: EC50); above 3.16 nM at human AT1R [1] (read-out: pEC50 (converted)); above 1.3 nM at human AT1R [4] (read-out: EC50); above 0.631 nM on human AT1R [4] (read-out: pEC50 (converted)); above 3.2 nM on rat AT1aR [2] (read-out: EC50); above 3.16 nM on rat AT1aR [2] (read-out: pEC50 (converted)).
Regarding `CNCC(=O)N[C@@H](CCCNC(=N)N)C(=O)N[C@H](C(=O)N[C@@H](Cc1ccc(O)cc1)C(=O)NC1(C(=O)N[C@@H](Cc2c[nH]cn2)C(=O)N2CCC[C@H]2C(=O)NC(C)C)CCCCC1)C(C)C` [SEQ ID NO: 46, Sar-Arg-Val-Tyr-cyHex-His-Pro-NH-i-Pr] (H-[Sar]RVY[Ac6c]HP-NHiPr), the Emax on human AT1R [1] is below 101%; on human AT1R [4] it was below 103%; at rat AT1aR [2], below 105%. In addition, the EC50 at human AT1R [1] (read-out: EC50) was above 3.2 nM; on human AT1R [1] (read-out: pEC50 (converted)), above 3.16 nM; at human AT1R [4] (read-out: EC50), above 1.3 nM; on human AT1R [4] (read-out: pEC50 (converted)) it was above 0.631 nM; at rat AT1aR [2] (read-out: EC50), above 3.2 nM; on rat AT1aR [2] (read-out: pEC50 (converted)), above 3.16 nM.
